1 compound from ChEMBL document CHEMBL4261520, “Advances in indoleamine 2,3-dioxygenase 1 medicinal chemistry” (Medchemcomm, 2017) can be followed below.

For this test, the system named is Homo sapiens. The experiment in a line: In vivo inhibition of IDO1 in malignant glioma patient assessed as reduction in intratumoral kynurenine levels relative to control. The format is functional.

In the case of `O=C1CC(c2c[nH]c3ccc(F)cc23)C(=O)N1` (stereo unspecified) [PF-06840003], the “inhibition (INH)” value is reported as greater than 80%.
